The results in this text go back to PMC7555119, “Characterization of Novel Synthetic Polyphenols: Validation of Antioxidant and Vasculoprotective Activities” (Antioxidants, 2020).

Assay in one data set: not given
Details: not given
`O=C(Nc1ccc(O)c(O)c1)Nc1cc(O)ccc1O` [Compound 13, N-(2,5-Dihydroxyphenyl)-N′-(3′,4′-dihydroxyphenyl)urea]: the melting point (commonly the temperature, or range, at which the solid turns liquid) was in the range of 141 to 143 °C.
For `O=C(Nc1ccc(O)cc1)Nc1ccc(O)c(O)c1` [Compound 14, N-(3,4-Dihydroxyphenyl)-N′-(4′-hydroxyphenyl)urea], the melting point lay in the range of 184 to 187 °C.
The same measure, in the same setting: for `O=C(Nc1cc(O)ccc1O)Nc1cc(O)ccc1O` [Compound 16, N,N′-bis(2,5-Dihydroxyphenyl)urea] the value was 109 °C (dec.); for `O=C(Nc1cc(O)ccc1O)N(Cc1cc(O)ccc1O)c1ccc(O)cc1` [Compound 18, N-(2′,5′-Dihydroxybenzyl)-N′-(2″,5″-dihydroxiphenyl)-N-(4-hydroxyphenyl)urea], 114 to 115 °C.

A further data set can be described thus: Oxygen radical absorbance capacity (ORAC) assay.
Details: not given
The protocol:
The ORAC assay was performed following Ou et al., as modified by Garcés-Rimón et al.. All samples and reagents were dissolved in phosphate buffer (75 mM; pH 7.4). […] The fluorescence was recorded at 40 °C every 55 s for 95 min using a fluorimeter (SpectraMax M2; Molecular Devices, California, USA), with excitation and emission wavelengths of 480 and 520 nm, respectively. All samples were tested in triplicate. ORAC values were expressed as μmol of Trolox equivalents (TE)/μmol of pure compound.
As to `Oc1cc(O)c2c(c1)O[C@H](c1ccc(O)c(O)c1)[C@H](O)C2` [(-)-Epicatechin, reference compound], the ORAC is listed as 10.03 ± 5.92 µmol of trolox/µmol of pure co.
Take `O=C(Cc1ccc(O)cc1O)Nc1cc(O)ccc1O` [Compound 2, 2-(2′,4′-Dihydroxyphenyl)-N-(2,5-dihydroxyphenyl)acetamide]: the ORAC is on record as 8.1 ± 0.1 µmol of trolox/µmol of pure compound.
`O=C(Nc1ccc(O)c(O)c1)Nc1cc(O)ccc1O` [Compound 13, N-(2,5-Dihydroxyphenyl)-N′-(3′,4′-dihydroxyphenyl)urea]: the ORAC was 7.8 ± 0.3 µmol of trolox/µmol of pure compound.
Take `O=C(Nc1ccc(O)cc1)Nc1ccc(O)c(O)c1` [Compound 14, N-(3,4-Dihydroxyphenyl)-N′-(4′-hydroxyphenyl)urea]: the ORAC is recorded as 9.6 ± 0.1 µmol of trolox/µmol of pure compound.
Take `O=C(Nc1cc(O)ccc1O)Nc1cc(O)ccc1O` [Compound 16, N,N′-bis(2,5-Dihydroxyphenyl)urea]: the ORAC is given as 11.9 ± 0.4 µmol of trolox/µmol of pure compound.
On the same count and under the same terms, the result for `O=C(Nc1cc(O)ccc1O)N(Cc1cc(O)ccc1O)c1ccc(O)cc1` [Compound 18, N-(2′,5′-Dihydroxybenzyl)-N′-(2″,5″-dihydroxiphenyl)-N-(4-hydroxyphenyl)urea] reads 15.3 ± 0.7 µmol of trolox/µmol of pure compound; that for `Oc1cc(O)c2c(c1)OC(c1ccc(O)c(O)c1)C(O)C2` [D-Catechin, reference compound], 8.59 ± 0.84 µmol of trolox/µmol of pure co.
Still for that read-out and setting: for `OCCc1ccc(O)c(O)c1` [Hydroxytyrosol, reference compound] the value was 6.33 ± 0.08 µmol of trolox/µmol of pure co.
The same measure, in the same setting: for `O=c1c(O)c(-c2ccc(O)c(O)c2)oc2cc(O)cc(O)c12` [Quercetin, reference compound] the value was 6.61 ± 0.27 µmol of trolox/µmol of pure co.

The next data set can be described thus: Stability in aqueous media (H2O/acetonitrile 80:20, HPLC-MS). The settings on record: remaining pure compound (HPLC) after two months at room temperature in aqueous solution (+20% acetonitrile). The data set is classed as physicochemical. The source says:
The solutions were checked by HPLC-MS at regular intervals of time for 60 days. […] The rest of the compounds suffered progressive degradation, with complete disappearance from the solution after 10 or 20 days. The most unstable polyphenol derivatives were 4 and 10 (Figure S1), having both two p-dihydroxy substitutions in the phenyl rings, which points to the rapid and easy oxidation to the p-hydroquinone. From the four compounds with three phenyl rings, only one was stable in aqueous solution (17).
With `O=C(Nc1ccc(O)cc1)Nc1ccc(O)c(O)c1` [Compound 14, N-(3,4-Dihydroxyphenyl)-N′-(4′-hydroxyphenyl)urea], the “Aqueous Stability (%)” value was determined as 0%.
Same read-out and setting: the result for `O=C(Nc1cc(O)ccc1O)Nc1cc(O)ccc1O` [Compound 16, N,N′-bis(2,5-Dihydroxyphenyl)urea] reads 0%.
Turning to `O=C(Nc1cc(O)ccc1O)N(Cc1cc(O)ccc1O)c1ccc(O)cc1` [Compound 18, N-(2′,5′-Dihydroxybenzyl)-N′-(2″,5″-dihydroxiphenyl)-N-(4-hydroxyphenyl)urea], the “Aqueous Stability (%)” value amounted to 0%.

A further data set can be described thus: ABTS radical cation scavenging assay.
Details: not given
The protocol:
The 2,2′-azino-bis (3-ethylbenzothiazoline-6-sulfonic acid) diammonium salt (ABTS) assay was performed according to Re et al. and modified by Oki et al. for its use in microplates. Samples were diluted in methanol. An ABTS^•+ stock solution was prepared by adding 44 μL of potassium persulfate (140 mmol/L) to a 2.5 mL ABTS^•+ aqueous solution (7 mmol/L). The working solution of the radical ABTS^+ was prepared by diluting the stock solution 1:75 (v/v) in a sodium phosphate buffer (5 mmol/L, pH 7.4) to obtain an absorbance value of 0.7±0.02 at 734 nm. Samples (30 μL) were added to 270 μL of the working solution of ABTS^•+ in a microplate. Absorbance was measured at 734 nm and 30 °C for 20 min, every 5 min in a Synergy HT plate spectrophotometer (Biotek Instruments, Winoosky, VT, USA). A calibration curve was made with Trolox (20–250 μM). All samples were analyzed in triplicate. Results were expressed in μmol TE/μmol of pure compound, as for the ORAC assays.
In the case of `Oc1cc(O)c2c(c1)O[C@H](c1ccc(O)c(O)c1)[C@H](O)C2` [(-)-Epicatechin, reference compound], the ABTS is 5.90 ± 0.73 µmol of trolox/µmol of pure co.
Take `Oc1cc(O)c2c(c1)OC(c1ccc(O)c(O)c1)C(O)C2` [D-Catechin, reference compound]: the ABTS was 3.17 ± 1.22 µmol of trolox/µmol of pure co.
Still for that read-out and setting: the result for `OCCc1ccc(O)c(O)c1` [Hydroxytyrosol, reference compound] reads 0.97 ± 0.05 µmol of trolox/µmol of pure co; that for `O=c1c(O)c(-c2ccc(O)c(O)c2)oc2cc(O)cc(O)c12` [Quercetin, reference compound], 5.28 ± 0.29 µmol of trolox/µmol of pure co.
